Reference: patent US20090082358A1, “Vanilloid receptor ligands and their use in treatments” (priority 2007, published 2009)

biological target: T1, human TRPM8 (Homo sapiens, UniProt Q7Z2W7); test: Luminescence readout assay for measuring intracellular calcium (aequorin), antagonism of cold buffer activation; assay type: cell-based; conditions: CHO cells expressing human TRPM8; activation by cold buffer (<10° C.)
T1 construct: expressed in transfected cells; host or cells: CHO cells, T-REx tetracycline-inducible expression system (Invitrogen), co-transfected with pcDNA3.1 aequorin
Method: Luminescence readout assay for measuring intracellular calcium. Stable CHO cell lines expressing human TRPM8 were generated using tetracycline inducible T-REx™ expression system from Invitrogen, Inc (Carlsbad, Calif.). […] Twenty four hours before the assay, cells were seeded in 96-well plates and TRP channel expression was induced with 0.5 μg/ml tetracycline.

T1 sequence (Q7Z2W7 whole entry): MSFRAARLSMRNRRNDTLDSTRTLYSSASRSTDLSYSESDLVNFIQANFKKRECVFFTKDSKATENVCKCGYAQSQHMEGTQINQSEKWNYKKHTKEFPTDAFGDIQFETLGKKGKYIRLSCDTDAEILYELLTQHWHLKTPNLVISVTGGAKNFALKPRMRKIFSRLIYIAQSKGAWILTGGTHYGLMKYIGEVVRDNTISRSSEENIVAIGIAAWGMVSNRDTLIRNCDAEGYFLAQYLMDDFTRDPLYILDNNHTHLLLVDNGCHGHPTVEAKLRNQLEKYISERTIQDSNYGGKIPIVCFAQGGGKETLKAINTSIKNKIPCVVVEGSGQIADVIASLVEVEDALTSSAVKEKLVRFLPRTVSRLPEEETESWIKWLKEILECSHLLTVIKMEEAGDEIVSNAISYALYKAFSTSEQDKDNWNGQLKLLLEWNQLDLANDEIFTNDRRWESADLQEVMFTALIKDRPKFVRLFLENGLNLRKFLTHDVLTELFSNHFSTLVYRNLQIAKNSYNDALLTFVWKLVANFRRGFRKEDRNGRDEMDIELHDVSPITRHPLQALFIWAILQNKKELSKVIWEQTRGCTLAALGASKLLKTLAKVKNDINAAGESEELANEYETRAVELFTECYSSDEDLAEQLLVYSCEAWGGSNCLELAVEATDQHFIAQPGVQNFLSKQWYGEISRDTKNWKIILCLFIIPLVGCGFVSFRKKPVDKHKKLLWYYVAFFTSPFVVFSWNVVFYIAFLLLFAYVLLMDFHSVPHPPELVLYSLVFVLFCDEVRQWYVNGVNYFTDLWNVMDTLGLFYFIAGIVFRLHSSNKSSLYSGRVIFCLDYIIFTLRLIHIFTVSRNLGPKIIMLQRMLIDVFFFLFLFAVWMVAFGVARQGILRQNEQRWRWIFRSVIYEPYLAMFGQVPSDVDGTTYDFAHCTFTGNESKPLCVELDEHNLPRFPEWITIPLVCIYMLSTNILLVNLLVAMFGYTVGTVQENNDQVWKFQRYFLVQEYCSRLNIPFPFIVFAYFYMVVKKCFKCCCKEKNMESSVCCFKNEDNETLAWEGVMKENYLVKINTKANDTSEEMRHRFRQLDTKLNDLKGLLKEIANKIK

SMILES	IC50 [µM]
O=C(Nc1ccc(F)cc1)N1CCc2c(-c3ccc(F)cc3)ccnc2[C@H]1c1ccc(C(F)(F)F)cc1 [Example 54, (R)—N,4-bis(4-fluorophenyl)-8-(4-(trifluoromethyl)phenyl)-5,6-dihydro-1,7-naphthyridine-7(8H)-carboxamide]	< 5
CCOC(=O)N1C=Cc2cccnc2C1c1ccc(F)cc1 (stereo not shown) [Example 44, Ethyl 8-(4-fluorophenyl)-1,7-naphthyridine-7(8H)-carboxylate]	< 5
N#Cc1cccc(NC(=O)N2CCc3cccnc3[C@H]2c2ccc(C(F)(F)F)cc2)c1 [Example 42, (R)—N-(3-Cyanophenyl)-8-(4-(trifluoromethyl)phenyl)-5,6-dihydro-1,7-naphthyridine-7(8H)-carboxamide]	< 5
CCOC(=O)N1C=Cc2ncccc2C1c1ccc(C(F)(F)F)cc1 (stereo not shown) [Example 1, Ethyl 5-(4-(trifluoromethyl)phenyl)-1,6-naphthyridine-6(5H)-carboxylate]	< 5
O=C(Nc1ccccn1)N1CCc2cccnc2[C@H]1c1ccc(C(F)(F)F)cc1 [Example 30, (R)—N-(pyridin-2-yl)-8-(4-(trifluoromethyl)phenyl)-5,6-dihydro-1,7-naphthyridine-7(8H)-carboxamide]	< 5
CCOC(=O)N1CCc2cccnc2C1c1ccc(F)cc1 (stereo not shown) [Example 45, Ethyl 8-(4-fluorophenyl)-5,6-dihydro-1,7-naphthyridine-7(8H)-carboxylate]	< 5
C[C@H](NC(=O)N1CCc2cccnc2[C@H]1c1ccc(C(F)(F)F)cc1)c1ccccc1 [Example 24, (R)—N—((S)-1-phenylethyl)-8-(4-(trifluoromethyl)phenyl)-5,6-dihydro-1,7-naphthyridine-7(8H)-carboxamide]	< 5
CCOC(=O)N1C=Cc2nccnc2C1c1ccc(C(F)(F)F)cc1 (stereo not shown) [Example 12, Ethyl 5-(4-(trifluoromethyl)phenyl)pyrido[3,4-b]pyrazine-6(5H)-carboxylate]	< 5
Cc1noc(C)c1NC(=O)N1CCc2cccnc2[C@H]1c1ccc(C(F)(F)F)cc1 [Example 27, (R)—N-(3,5-dimethylisoxazol-4-yl)-8-(4-(trifluoromethyl)phenyl)-5,6-dihydro-1,7-naphthyridine-7(8H)-carboxamide]	< 5
O=C(Nc1ccc(Cl)cc1)N1CCc2cccnc2[C@H]1c1ccc(C(F)(F)F)cc1 [Example 23, (R)—N-(4-chlorophenyl)-8-(4-(trifluoromethyl)phenyl)-5,6-dihydro-1,7-naphthyridine-7(8H)-carboxamide]	< 5
O=C(NCc1ccccc1)N1CCc2cccnc2[C@H]1c1ccc(C(F)(F)F)cc1 [Example 32, (R)—N-benzyl-8-(4-(trifluoromethyl)phenyl)-5,6-dihydro-1,7-naphthyridine-7(8H)-carboxamide]	< 5
COc1ccc(NC(=O)N2CCc3cccnc3[C@H]2c2ccc(C(F)(F)F)cc2)cc1 [Example 35, (R)—N-(4-methoxyphenyl)-8-(4-(trifluoromethyl)phenyl)-5,6-dihydro-1,7-naphthyridine-7(8H)-carboxamide]	< 5
CCOC(=O)N1C=Cc2cccnc2C1c1ccc(C(F)(F)F)cc1 (stereo not shown) [Example 5, Ethyl 8-(4-(trifluoromethyl)phenyl)-1,7-naphthyridine-7(8H)-carboxylate]	< 5
CN(C)c1ccc(NC(=O)N2CCc3cccnc3[C@H]2c2ccc(C(F)(F)F)cc2)cc1 [Example 25, (R)—N-(4-(dimethylamino)phenyl)-8-(4-(trifluoromethyl)phenyl)-5,6-dihydro-1,7-naphthyridine-7(8H)-carboxamide]	< 5
C[C@@H](NC(=O)N1CCc2cccnc2[C@H]1c1ccc(C(F)(F)F)cc1)c1ccccc1 [Example 29, (R)—N—((R)-1-phenylethyl)-8-(4-(trifluoromethyl)phenyl)-5,6-dihydro-1,7-naphthyridine-7(8H)-carboxamide]	< 5
O=C(Nc1ccc(F)c(F)c1)N1CCc2cccnc2[C@H]1c1ccc(C(F)(F)F)cc1 [Example 26, (R)—N-(3,4-difluorophenyl)-8-(4-(trifluoromethyl)phenyl)-5,6-dihydro-1,7-naphthyridine-7(8H)-carboxamide]	< 5
O=C(NCCc1ccccc1)N1CCc2cccnc2[C@H]1c1ccc(C(F)(F)F)cc1 [Example 22, (R)—N-phenethyl-8-(4-(trifluoromethyl)phenyl)-5,6-dihydro-1,7-naphthyridine-7(8H)-carboxamide]	< 5
COc1ccccc1NC(=O)N1CCc2cccnc2[C@H]1c1ccc(C(F)(F)F)cc1 [Example 20, (R)—N-(2-methoxyphenyl)-8-(4-(trifluoromethyl)phenyl)-5,6-dihydro-1,7-naphthyridine-7(8H)-carboxamide]	< 5
CC(C)NC(=O)N1CCc2nccnc2[C@H]1c1ccc(C(F)(F)F)cc1 [Example 38, (R)—N-Isopropyl-5-(4-(trifluoromethyl)phenyl)-7,8-dihydropyrido[3,4-b]pyrazine-6(5H)-carboxamide]	< 5
O=C(OCc1ccccc1)N1C=Cc2cccnc2C1c1ccc(C(F)(F)F)cc1 (stereo not shown) [Example 43, Benzyl 8-(4-(trifluoromethyl)phenyl)-1,7-naphthyridine-7(8H)-carboxylate]	< 5
O=C(Nc1ccc(F)cc1)N1CCc2cccnc2C1c1ccc(-c2ccccc2)cc1 (stereo not shown) [Example 47, N-(4-Fluorophenyl)-8-(4-biphenyl)-5,6-dihydro-1,7-naphthyridine-7(8H)-carboxamide]	< 5
O=C(Nc1ccccc1F)N1CCc2cccnc2[C@H]1c1ccc(C(F)(F)F)cc1 [Example 21, (R)—N-(2-fluorophenyl)-8-(4-(trifluoromethyl)phenyl)-5,6-dihydro-1,7-naphthyridine-7(8H)-carboxamide]	< 5
O=C(N[C@H]1C[C@H]1c1ccccc1)N1CCc2cccnc2[C@H]1c1ccc(C(F)(F)F)cc1 [Example 36, (R)—N-((1S,2S)-2-phenylcyclopropyl)-8-(4-(trifluoromethyl)phenyl)-5,6-dihydro-1,7-naphthyridine-7(8H)-carboxamide]	< 5

Other lines, results leading:

IC50 [µM]	SMILES
< 5	O=C(Nc1cccnc1)N1CCc2nccnc2[C@H]1c1ccc(C(F)(F)F)cc1 [Example 39, (R)—N-(Pyridin-3-yl)-5-(4-(trifluoromethyl)phenyl)-7,8-dihydropyrido[3,4-b]pyrazine-6(5H)-carboxamide]
< 5	O=C(Nc1cccc(F)c1)N1CCc2cccnc2[C@H]1c1ccc(C(F)(F)F)cc1 [Example 33, (R)—N-(3-fluorophenyl)-8-(4-(trifluoromethyl)phenyl)-5,6-dihydro-1,7-naphthyridine-7(8H)-carboxamide]
< 5	Cc1ccnc2c1CCN(C(=O)Nc1ccc(F)cc1)[C@@H]2c1ccc(C(F)(F)F)cc1 [Example 55, (R)—N-(4-fluorophenyl)-4-methyl-8-(4-(trifluoromethyl)phenyl)-5,6-dihydro-1,7-naphthyridine-7(8H)-carboxamide]
< 5	O=C(Nc1ccc(-c2ccccc2)cc1)N1CCc2cccnc2[C@H]1c1ccc(C(F)(F)F)cc1 [Example 31, (R)—N-(4-biphenyl)-8-(4-(trifluoromethyl)phenyl)-5,6-dihydro-1,7-naphthyridine-7(8H)-carboxamide]
< 5	C[C@@H]1Cc2cccnc2[C@H](c2ccc(C(F)(F)F)cc2)N1C(=O)Nc1ccc(F)cc1 (racemic) [Example 48, (6R,8)-N-(4-Fluorophenyl)-6-methyl-8-(4-(trifluoromethyl)phenyl)-5,6-dihydro-1,7-naphthyridine-7(8H)-carboxamide and (6S,8R)—N-(4-fluorophenyl)-6-methyl-8-(4-(trifluoromethyl)phenyl)-5,6-dihydro-1,7-naphthyridine-7(8H)-carboxamide]
< 5	O=C(Nc1ccc2c(c1)OCO2)N1CCc2cccnc2[C@H]1c1ccc(C(F)(F)F)cc1 [Example 37, (R)—N-(benzo[d][1,3]dioxol-5-yl)-8-(4-(trifluoromethyl)phenyl)-5,6-dihydro-1,7-naphthyridine-7(8H)-carboxamide]
< 5	CC(C)(C)NC(=O)N1CCc2cccnc2[C@H]1c1ccc(C(F)(F)F)cc1 [Example 28, (R)—N-tert-butyl-8-(4-(trifluoromethyl)phenyl)-5,6-dihydro-1,7-naphthyridine-7(8H)-carboxamide]
< 5	O=C(Nc1ccc(C(F)(F)F)cc1)N1CCc2cccnc2[C@H]1c1ccc(C(F)(F)F)cc1 [Example 40, (R)—N,8-Bis(4-(trifluoromethyl)phenyl)-5,6-dihydro-1,7-naphthyridine-7(8H)-carboxamide]
< 5	O=C(Nc1ccc(F)cc1)N1CCc2cccnc2C1c1ccc(F)cc1 (stereo not shown) [Example 46, N,8-Bis(4-fluorophenyl)-5,6-dihydro-1,7-naphthyridine-7(8H)-carboxamide]
< 5	N#Cc1ccccc1NC(=O)N1CCc2cccnc2[C@H]1c1ccc(C(F)(F)F)cc1 [Example 41, (R)—N-(2-Cyanophenyl)-8-(4-(trifluoromethyl)phenyl)-5,6-dihydro-1,7-naphthyridine-7(8H)-carboxamide]
< 5	C[C@@H]1CN(C(=O)Nc2ccc(F)cc2)[C@H](c2ccc(C(F)(F)F)cc2)c2ncccc21 (racemic) [Example 49, (5S,8R)—N-(4-Fluorophenyl)-5-methyl-8-(4-(trifluoromethyl)phenyl)-5,6-dihydro-1,7-naphthyridine-7(8H)-carboxamide and (5R,8S)—N-(4-fluorophenyl)-5-methyl-8-(4-(trifluoromethyl)phenyl)-5,6-dihydro-1,7-naphthyridine-7(8H)-carboxamide]
